Reference: patent US20090291910A1, “AGENT AND FOOD FOR PREVENTING/IMPROVING FUNCTIONAL DIGESTIVE DISORDER” (AJINOMOTO CO., INC, priority 2004, published 2009)

Legend:
stomach emptying [1] = assay: gastric emptying rate, phenol red in 5% casein fluid diet; conditions: oral in 5% casein fluid diet, 30 min; for stomach emptying rate: FIGS. 7A, 7B, 7C
stomach emptying [2] = assay: stomach emptying, glass beads distribution in stomach and small intestine; assay type: in vivo, SD rats; conditions: 1% monosodium glutamate in 5% casein, 10 mL/kg oral; beads 1 hr later, autopsy 30 min later; N=5 vs N=4; FIG. 5
Description: 7-to 9-week-old male SD rats were fasted overnight and applied to the experiment. A test diet was orally administered at a volume of 10 mL/kg and, 1 hr later, about 80 glass beads having a diameter of 1 mm were orally administered. The rats were autopsied 30 min later, and the number of beads present in the stomach and small intestine was counted. The small intestine was divided into 4, and named B1-B4 from the area near the stomach.

[3] = tested on: NO release in the stomach mucous membrane; assay: NO release in the stomach mucous membrane during intragastric perfusion (NO electrode); assay type: in vivo, SD rat
Description: SD rat was subjected to laparotomy with urethane anesthesia, a small incision was made in the anterior stomach and the small intestine, a 2 mm diameter polyethylene tube was inserted, and the perfusate was introduced and discharged with a Perista Pump. The perfusate was heated to 38° C. and the flow rate was 1 mL/min. The NO electrode was maintained under the lamina muscularis mucosae together with a temperature sensor, saline was perfused in the stomach for 2-3 hr, the released NO value was stabilized, and isotonic MSG solution (150 mM) was perfused during the time zone of 14:00-18:00.

[4] = tested on: vagus nerve afferent pathway; conditions: cited from earlier work
[5] = tested on: plasma 5HT and 5HIAA in portal blood; assay: leakage of serotonin and 5HIAA in the portal blood after intragastric administration; assay type: in vivo, SD rats; conditions: 450 mM MSG 2 mL oral, 0-60 min
Description: Male SD rats (8-week-old) were used. They were bred in a light-dark control room with a 7:00-19:00 light period. […] The catheter was filled with saline containing 10 unit/mL heparin to prevent hematological coagulation in the catheter. Saline and MSG 450 mM solution were each administered orally by 2 mL using an oral sonde. The blood was drawn every 10 min from 10 min before the administration to 60 min after the administration. To prevent unnecessary platelet activation, blood samples were collected with sufficient attention. […] To the separated plasma was rapidly added an equivalent amount of a mixture (adjusted to pH 2) of acetic acid and hydrochloric acid to eliminate protein. The serotonin (5-HT) amount and 5HIAA amount contained in the supernatant were analyzed by an electric chemical detector (ECD-100, manufactured by Accom Inc.). The analysis conditions were as follows.
Using the aforementioned analysis method, serotonin and 5HIAA of stable metabolite thereof of the same sample were quantitated. […] Each was normalized based on the value at 0 min immediately after administration as 100%. The blood collection time immediately after 2 mL intragastric administration was taken as 0 min.

## N[C@@H](CCC(=O)[O-])C(=O)[O-].[Ca+2] [calcium glutamate]
Stomach emptying [1]
  stomach emptying rate: promote stomach emptying

## N[C@@H](CCC(=O)O)C(=O)O [glutamic acid]
Stomach emptying [2]
  distribution of beads in stomach and small intestine versus control group: tends to contain a smaller number of beads in the stomach and a large number of beads in the small intestine

## N[C@@H](CCC(=O)O)C(=O)[O-].[Na+] [monosodium glutamate]
[3]; MSG (2.5%) perfusion, FIG. 3
  NO concentration in the stomach mucous membrane: confirmed to increase
[3]; isotonic MSG (2.5%) perfused in the stomach
  latent time of increase in released NO: ~15 min
[3]; isotonic MSG (2.5%, 150 mM) perfused in the stomach
  cases with an increase in the released NO: 3 cases out of 20 cases
Stomach emptying [1]; FIGS. 6A, 6B
  stomach emptying degree with the stomach emptying rate of the control group as 100: promoted stomach emptying
[4]; administration into the stomach and duodenum
  activation of the vagus nerve afferent pathway: activates the vagus nerve afferent pathway
[4]; intravenous and intraportal administration
  activation of the vagus nerve: does not activate the vagus nerve
[5]; FIG. 4A
  relative concentration of plasma 5HT in portal blood versus saline administration: no difference
[5]; FIG. 4B
  relative concentration of plasma metabolite 5HIAA in portal blood versus saline administration: showed an increase beyond the increase by the saline administration group

## arginine glutamic acid salt
Stomach emptying [1]; FIGS. 6A, 6B
  comparison of stomach emptying effect with sodium salt: promotes stomach emptying from lower doses as compared to sodium salt
  stomach emptying degree with the stomach emptying rate of the control group as 100: promoted stomach emptying

## lysine glutamic acid salt
Stomach emptying [1]
  stomach emptying rate: promote stomach emptying
